Results as given in PubChem BioAssay (NCI).
Several values for one entry are separate records, joined by “and”; a condition that tells them apart may be missing. Equal entries are not always repeated.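 Test compounds were applied to cells in 96-well plates for 48 hours at 5 doses. GI50 marks 50% less growth. The concentration for full growth arrest is given as TGI.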

Key:
Experiment in all cases: NCI anticancer screen, dose series, 48 h
[1] = system: SF-539 CNS
[2] = system: SNB-19 CNS
[3] = system: OVCAR-4 ovarian
[4] = system: MDA-MB-231 breast
[5] = system: HT29 colon
[6] = system: IGROV1 ovarian
[7] = system: A498 renal
[8] = system: TK-10 renal
[9] = system: UO-31 renal
[10] = system: ACHN renal

| Structure (SMILES) | TGI [1] | TGI [2] | TGI [3] | TGI [4] | TGI [5] | TGI [6] | TGI [7] | TGI [8] | TGI [9] | TGI [10] | GI50 [1] [µM] | GI50 [2] [µM] | GI50 [3] [µM] | GI50 [4] [µM] | GI50 [5] [µM] | GI50 [6] [µM] | GI50 [7] [µM] | GI50 [8] [µM] | GI50 [9] [µM] | GI50 [10] [µM] |
| --- | --- | --- | --- | --- | --- | --- | --- | --- | --- | --- | --- | --- | --- | --- | --- | --- | --- | --- | --- | --- |
| NC(N)=N/N=C(/c1ccccc1)c1ccc(O)cc1O | 39 µM | > 100 µM | > 100 µM | > 100 µM | 39.2 µM | > 100 µM | 61.7 µM | > 100 µM | > 100 µM | > 100 µM |  |  |  |  |  |  |  |  |  |  |
| OCCCCC#Cc1ccccc1C#Cc1cccs1 | 25.9 µM | 31.1 µM | 50.1 µM | 23.3 µM | 27.6 µM | 30.5 µM | 23.3 µM | 52.9 µM | 30.6 µM | 28.8 µM | 12.9 | 16.1 | 20.2 | 10.6 | 12 | 16.5 | 9.67 | 25.3 | 16.9 | 15.5 |
| Cc1sc2c(c1C)C(c1ccc(Cl)cc1)=N[C@@H](CC(=O)Nc1ccc(O)cc1)c1nnc(C)n1-2 | 19 µM | 31.3 µM | > 67 µM | 21.7 µM | 18.9 µM | 39.9 µM | 2.48 µM | 19 µM | 15.4 µM | 29.9 µM | 0.629 | 0.721 | 0.585 | 0.18 | 0.197 | 2.5 | 0.204 | 0.0941 | 0.151 | 1.28 |
| Cc1ccc(C(=O)Nc2ccccc2C(=O)N/N=C(\c2ccccc2)c2ccccn2)cc1 | 6.95 µM | > 100 µM | > 100 µM | > 100 µM | > 100 µM | > 100 µM |  | > 100 µM | 2.66 µM | > 25.9 µM | 0.309 | 0.554 | 0.157 | 0.517 | 0.25 | 0.177 | 0.63 | 3.58 | 0.107 | 0.166 |
| Oc1oc(-c2ccccc2)nc1/C=C1/C=NN=N1 | > 100 µM | > 100 µM | > 100 µM | > 100 µM | > 100 µM | > 100 µM | > 100 µM | > 100 µM | > 100 µM | > 100 µM |  |  |  |  |  |  |  |  |  |  |
| O=C1/C(=C/c2ccc(C(F)(F)F)cc2)COc2ccc(O)cc21 | 3.3 µM | 3.98 µM | 13 µM | 5.65 µM | 4.32 µM | 3.17 µM | 24 µM | 14.3 µM | 2.67 µM | 3.53 µM | 1.68 | 1.91 | 3.4 | 2.36 | 2.03 | 1.6 | 11.6 | 3.7 | 1.26 | 1.84 |
| CN(C)CCN1C(=O)c2cccc3c(-c4ccc5ncn(C6CCCCC6)c5c4)ccc(c23)C1=O | 9.03 µM | 20.1 µM | 18.1 µM | 9.78 µM | 8.11 µM | 5.86 µM | 5.1 µM | 12.6 µM | 2.4 µM | 2.36 µM | 2.19 | 1.88 | 2.11 | 2.18 | 0.938 | 1.12 | 2.15 | 2.14 | 1.06 | 0.539 |
| CCN1CCN(c2nc(C)cc(N(CCCNc3ccnc4cc(Cl)ccc34)Cc3ccco3)n2)CC1 | 3.46 µM | 17.5 µM | 20.7 µM | 12.4 µM | 8.72 µM | 15.4 µM | 49.1 µM | 4.9 µM | 4.3 µM | 6.99 µM | 1.75 | 4.78 | 3.99 | 3.18 | 2.35 | 3.38 | 6.53 | 2.13 | 1.83 | 2.58 |
| COC(=O)C1=C2CO[C@@H]3C[C@H]4C(C)(C)CCC[C@]4(C)C(=CC1)[C@]23C | > 100 µM | > 100 µM | > 100 µM | > 100 µM | > 100 µM | > 100 µM | > 100 µM | > 100 µM | > 100 µM | > 100 µM | 72.7 | 46.8 | 62.1 | 83 | 48.4 | 60.7 | 67.5 | 42.8 | 60.7 | 72 |
| CC1(C)CC(O)CCCCCCOc2c(CN)cccc2NC(=O)c2nc(cnc2N)-c2ccc(cc2)S1(=O)=O (stereo not drawn) | 1.73 µM | 4.46 µM | 3.43 µM | 4.48 µM | 3.75 µM | 1.48 µM | 0.84 µM | 3.86 µM | 2.25 µM | 2.04 µM | 0.0363 | 1.66 | 1.3 | 1.85 | 0.309 | 0.148 | 0.0151 | 1.52 | 0.648 | 0.0214 |
| CCCCCCCCCCC(CN(CC)CC)C(O)c1ccccc1 (stereo not drawn) | 3.3 µM | 3.77 µM | 3.45 µM | 3.43 µM | 3.81 µM | 3.51 µM | 14.4 µM | 3.22 µM | 3.1 µM | 3.07 µM | 1.72 | 1.86 | 1.63 | 1.72 | 1.76 | 1.82 | 3.68 | 1.65 | 1.56 | 1.61 |
| COc1cccc2cc(N(C)c3nc(C)nc4ccsc34)ccc12 | < 0.01 µM | 22.9 µM | 19.8 µM | 15 µM | 11.6 µM | 14.5 µM | < 0.015 µM | 24.1 µM | 12.5 µM | 13.3 µM | < 0.01 | < 0.01 | < 0.0266 | < 0.01 | < 0.01 | < 0.01 | < 0.01 | 1.87 | < 0.01 | < 0.01 |
| CO[C@H]1/C=C/C[C@H](C)[C@@H](C)S(=O)(=O)NC(=O)c2ccc3c(c2)N(C[C@@H]2CC[C@H]21)C[C@@]1(CCCc2cc(Cl)ccc21)CO3 | 4.55 µM | 14.1 µM | 12.1 µM | 5.64 µM | 5.16 µM | 10.6 µM | 3.47 µM | 11.1 µM | 11.1 µM | 11.8 µM | 1.85 | 3.45 | 2.46 | 2.11 | 2.13 | 3.08 | 1.45 | 2.8 | 3.19 | 3.39 |
| C=C1C(=O)O[C@H]2[C@H]1CC/C(COC(=O)NCc1cccc(OC)c1)=C\CC[C@@]1(C)O[C@@H]21 | 2.98 µM | 20 µM | 11.1 µM | 4.22 µM | 3.87 µM | 8.4 µM | 22.4 µM | 3.87 µM | 2.94 µM | 2.41 µM | 1.55 | 6.42 | 2.61 | 1.95 | 1.79 | 2.76 | 10.5 | 1.85 | 1.58 | 1.17 |
| Cc1cccc2cc3ccc4ccccc4c3cc12 | > 100 µM | > 100 µM | > 100 µM | > 100 µM | 97.8 µM | > 100 µM | > 100 µM | > 100 µM | > 100 µM | > 100 µM |  |  |  |  |  |  |  |  |  |  |
| CN1CCN(c2ccc([N+](=O)[O-])c3no[n+]([O-])c23)CC1 | 0.722 µM and 0.733 µM | 4.82 µM and 2.24 µM | 2.54 µM and 1.8 µM | 3.46 µM and 3.65 µM | 3.43 µM and 0.512 µM | 0.919 µM and 0.362 µM | 2.76 µM and 1.71 µM | 2.33 µM and 1.49 µM | 1.88 µM and 1.14 µM | 0.787 µM and 0.954 µM | 0.246 |  | 0.444 |  | 0.135 | 0.0516 | 0.288 | 0.454 | 0.189 | 0.158 |
| C[C@@H]1CCC2[C@@H](C)[C@H](OC(=O)CCC(=O)NCCNC(=O)Cc3cc(=O)oc4cc(N(C)C)ccc34)O[C@@H]3O[C@]4(C)CC[C@@H]1C23OO4 (stereo partly drawn) | 24.3 µM | > 100 µM | > 100 µM | > 100 µM | 19.6 µM | 17.7 µM | > 89.9 µM | 18.6 µM | 4.15 µM | 17.1 µM | 3.22 | 10.7 | 11.4 | 22.6 | 1.05 | 2.55 | 7.5 | 3.24 | 0.897 | 2.96 |
| COc1cc2c(cc1-c1c(C)noc1C)ncc1[nH]c(=O)n([C@H](C)c3ccccn3)c12 | > 100 µM | > 100 µM | > 100 µM | > 100 µM | > 100 µM | > 34.2 µM | 13.1 µM | 22 µM | > 57.6 µM | > 100 µM | 0.677 | 1.16 | 1.94 | 0.528 | 0.244 | 0.765 | 1.55 | 0.257 | 0.119 | 1.2 |
| CC(C)c1ccc(O)c(O)c(=O)c1 (tested in a mixture with another compound) | > 21.1 µM | > 100 µM | > 100 µM | 26.7 µM | > 100 µM | > 54.9 µM | 25.2 µM | 9.6 µM | > 41.2 µM | 13 µM |  |  |  |  |  |  |  |  |  |  |
| O=C1C(Cl)=C(Nc2ccc3c(c2NC2=C(Cl)C(=O)c4ccccc4C2=O)C(=O)c2ccccc2C3=O)C(=O)c2ccccc21 | 8.07 µM | 10.3 µM | 2.99 µM | 7.87 µM | 8.54 µM | 4.25 µM | 4.2 µM | 22.2 µM | 9.01 µM | 9.05 µM | 2.83 | 2.74 | 1.42 | 1.67 | 3.12 | 1.62 | 2.02 | 7.26 | 1.75 | 2.15 |
| COc1ccc(-c2cc3nccn3c(Nc3ncccc3C(N)=O)n2)cc1OC | > 100 µM | > 100 µM | > 100 µM | > 100 µM | > 100 µM | 6.19 µM | > 100 µM | > 29.8 µM | 42.1 µM | > 100 µM | 5.86 | > 100 | > 100 | > 100 | 1.19 | 0.472 | 0.456 | 0.391 | 0.758 | 0.445 |
| C=C(C)C(=O)N1c2ccc(OC)cc2CC1C(=O)OCC (stereo not drawn) | > 100 µM | > 100 µM | > 100 µM | > 100 µM | > 100 µM | > 100 µM | > 100 µM | > 100 µM | > 100 µM | > 100 µM |  |  |  |  |  |  |  |  |  |  |
| O=C1c2c(O)cccc2C(C(=O)CCCC(=O)C2c3cccc(O)c3C(=O)c3c(O)cccc32)c2cccc(O)c21 | 0.675 µM | 4.12 µM | 0.82 µM | 0.329 µM | 2.48 µM | 2.41 µM | 3.66 µM | 1.67 µM | 1.08 µM | 1.02 µM |  |  |  |  |  |  |  |  |  |  |
| Cc1ccc2oc(=O)cc(C3c4ccc([nH]4)C(c4cc(=O)oc5ccc(C)cc45)c4ccc([nH]4)C(c4cc(=O)oc5ccc(C)cc45)c4ccc([nH]4)C(c4cc(=O)oc5ccc(C)cc45)c4ccc3[nH]4)c2c1 (stereo not drawn) | 0.0669 µM | 3.45 µM | 3.81 µM | 0.818 µM | 0.108 µM | 1.73 µM | 0.248 µM | 0.926 µM | 1.19 µM | 2.67 µM | 0.0239 | 0.0394 | 0.104 | 0.125 | 0.0347 | 0.0492 | 0.0275 | 0.0519 | 0.0364 | 0.0621 |
| O=C(Nc1ccc([N+](=O)[O-])cc1)c1cc2ccccc2cc1O | 4.94 µM | 27.8 µM | > 100 µM | 1.89 µM | > 29.8 µM | 12.5 µM | 0.628 µM | 6.82 µM | 1.15 µM | 16.8 µM | 0.388 | 0.405 | 0.322 | 0.413 | 3.52 | 0.575 | 0.197 | 0.402 | 0.294 | 0.38 |
| CC(C)[C@H](O)C(=O)N[C@H]1Cc2ccc3c(c2)[C@]24C5=C(N=C(O5)[C@H](C(C)C)NC1=O)c1nc(Cl)c(o1)-c1c(Cl)[nH]c5cccc(c15)-c1cccc2c1N[C@H]4O3 | 0.083 µM |  | > 10 µM |  | 0.183 µM | > 10 µM | > 10 µM |  | > 10 µM | 5.3 µM |  | < 0.001 |  | 0.00178 | < 0.001 | < 0.001 |  |  |  |  |
